From patent US20230312587A1, “PTERIDINONE COMPOUNDS AND USES THEREOF” (Vertex Pharmaceutical Incorporated, priority 2018, published 2023) come the findings set out here.

Read-outs that look alike come from different tables or passages of the source.

Assay [1] concerns Colo205-TCF/LEF-Luciferase (Luc) tumor. The experiment in a line: In vivo inhibition of TCF/LEF reporter activity in Colo-205 tumors. As to conditions: TCF/LEF luciferase reporter in Colo-205 tumors, nu/nu mice, oral gavage. Set-up: concentration or dose not given beside the values. The method in brief: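 Female nu/nu mice carried subcutaneous Colo205-TCF/LEF-luciferase tumours (200–500 mm^3), n=4 per group. Compound was given by oral gavage in 1:3:5:1 EtOH:DMSO:PEG-400:H2O at 10 ml/kg, with vehicle as control. Luciferase activity in tumour lysates (Steady-Glo) was normalised to BCA protein.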
(A reporter such as luciferase makes a cellular process visible.)

Another assay has as its system Hek293 empty vector. Description: In vitro cell viability (CellTiter-Glo), Hek293 empty vector. It counts as cell-based. Particulars: read-out: Hek293 empty vector viability. The method, then:
HEK293 (ATCC, catalog #CRL-1573) cells are plated in 10 cm dishes (Corning, product #430167) into 10 mL of complete DMEM cell culture media [DMEM (Life Technologies, product #11960-051) media supplemented with 10% FBS (Hyclone, catalog #SH30071.03), antimycotic/antibiotic (Life Technologies, product #15240-062), and Glutamax (Life Technologies, product #35050-061)] at 3×10^6 cells per dish. Cells are allowed to attach and grow overnight at 37° C. in humidified 5% CO2. Cells are co-transfected with pVSV-G, pCMV-Gag/Pol and pCLPCX_WFS1 using Fugene 6 (Promega, catalog #E2691) according to manufacturer's protocol. Separately, cells are co-transfected with pVSV-G, pCMV-Gag/Pol and pCLPCX to produce control retrovirus. Cell culture media containing retrovirus (viral supernatant) is collected at 48 and 72 hours following transfection, filtered through a 0.4 uM filter, and stored at −80° C.
HEK293 cells are plated in 6 well plates (Corning, product #3516) in 2 mL of complete DMEM cell culture media at 1×10^5 cells well and allowed to attach and grow overnight at 37° C. in humidified 5% CO2. The following day, the media is replaced with viral supernatant to which 10 ug/ml of Polybrene® (Santa Cruz Biotech, catalog #sc-134220) is added. Viral supernatant is replaced 24 hours later with complete DMEM media. Transduced cells are selected in complete DMEM cell culture media containing 1 microgram/mL of puromycin (Life Technologies, catalog #A1113803).
HEK293 cells containing empty pCLPCx vector (HEK293 empty), HEK293 cells stably over-expression WFS1 (HEK293 WFS1), HepG2, and HepG2 cells where WFS1 was depleted via CRISPR/Cas9 (HepG2 WFS1 KO) cells were plated into 96-well black plates (Corning, product #3904) in 100 microliters of complete DMEM cell culture media [DMEM (Life Technologies, product #11960-051) media supplemented with 10% FBS (Hyclone, catalog #SH30071.03), antimycotic/antibiotic (Life Technologies, product #15240-062), and Glutamax (Life Technologies, product #35050-061)] at 1,000 (HEK293) or 5,000 (HepG2) cells per well. Cells were allowed to attach and grow overnight, after which compounds are added at various concentrations. Cell viability was assessed 96 hrs after compound addition with CellTiter-Glo reagent (Promega, catalog #G7570) according to manufacturer's protocol and measurement on a Pherastar luminescence plate reader (BMG Labtech).
The IC50s for the viability of both the Hek293 empty vector and WFS1 over-expressing cells are summarized in Table 47: A<0.06 μM; 0.06 μM≤B<0.6 μM; 0.6 μM≤C<3.0 μM; D≥3.0 μM.
A general note: In ATP-based viability assays light output follows the ATP content of the culture.

Take `Cc1nc(NCc2cnn(Cc3ccc(C(F)(F)F)cc3)c2)nc2c1NC(=O)[C@H](C)N2C` [Compound 149, (7S)-4,7,8-trimethyl-2-(((1-(4-(trifluoromethyl)benzyl)-1H-pyrazol-4-yl)methyl)amino)-7,8-dihydropteridin-6(5H)-one]: the “Percent Remaining Activity at 8 hrs after Dosing” value (from here on “Percent Remaining Activity”) in assay [1] came out at 17%. Also, the IC50 in the assay with Hek293 empty vector (Homo sapiens, HEK293) is no less than 3000 nM.
Consider `Cc1ncc(Cn2cc(CNc3nc(C)c4c(n3)N(C)[C@@H](C(C)C)C(=O)N4)cn2)cc1F` [Compound 425, (7S)-2-(((1-((5-fluoro-6-methylpyridin-3-yl)methyl)-1H-pyrazol-4-yl)methyl)amino)-7-isopropyl-4,8-dimethyl-7,8-dihydropteridin-6(5H)-one], for which the “Percent Remaining Activity” value in assay [1] was found to be 29%. The IC50 in the assay with Hek293 empty vector (Homo sapiens, HEK293) is no less than 3000 nM.
As for `Cc1nc(NCc2cnn(Cc3cc(C(F)(F)F)nn3C)c2)nc2c1NC(=O)[C@H](C(C)C)N2C` [Compound 397, (7S)-7-Isopropyl-4,8-dimethyl-2-(((1-((1-methyl-3-(trifluoromethyl)-1H-pyrazol-5-yl)methyl)-1H-pyrazol-4-yl)methyl)amino)-7,8-dihydropteridin-6(5H)-one], the “Percent Remaining Activity” value in assay [1] came out at 23%. Besides, the IC50 in the assay with Hek293 empty vector (Homo sapiens, HEK293) was no less than 3000 nM.
On to `Cc1nc(NCc2cnn(Cc3ccc(F)cc3)c2)nc2c1N(C)C(=O)[C@H](C)N2C` [Compound 1, (7S)-2-(((1-(4-fluorobenzyl)-1H-pyrazol-4-yl)methyl)amino)-4,5,7,8-tetramethyl-7,8-dihydropteridin-6(5H)-one], for which the “Percent Remaining Activity” value in assay [1] is given as 32%. In addition, in the assay on Hek293 empty vector (Homo sapiens, HEK293), the IC50 is no less than 3000 nM.
Take `Cc1nc(N[C@H]2C[C@H](Oc3ccnc(C(F)(F)F)c3)C2)nc2c1NC(=O)[C@H](C)N2C` [Compound 335, (7S)-4,7,8-trimethyl-2-((trans-3-((2-(trifluoromethyl)pyridin-4-yl)oxy)cyclobutyl)amino)-7,8-dihydropteridin-6(5H)-one]: in assay [1], the “Percent Remaining Activity” value is listed as 18%. The IC50 with Hek293 empty vector (Homo sapiens, HEK293) is no less than 3000 nM.
Consider `Cc1nc(NCc2cnn(Cc3ccc(C(F)(F)F)nc3)c2)nc2c1NC(=O)[C@H](C1CC1)N2C` [Compound 386, (7S)-7-Cyclopropyl-4,8-dimethyl-2-(((1-((6-(trifluoromethyl)pyridin-3-yl)methyl)-1H-pyrazol-4-yl)methyl)amino)-7,8-dihydropteridin-6(5H)-one], for which the “Percent Remaining Activity” value in assay [1] was 19%. The IC50 in the assay on Hek293 empty vector (Homo sapiens, HEK293) was no less than 3000 nM.
Consider `Cc1nc(NCc2ccc(-n3cc(C(F)(F)F)cn3)nc2)nc2c1NC(=O)[C@H](C)N2C` [Compound 143, (S)-4,7,8-trimethyl-2-(((6-(4-(trifluoromethyl)-1H-pyrazol-1-yl)pyridin-3-yl)methyl)amino)-7,8-dihydropteridin-6(5H)-one], for which the IC50 in the assay on Hek293 empty vector (Homo sapiens, HEK293) is no less than 3000 nM.
Consider `Cc1nc(N[C@H]2C[C@H](COc3cc(F)c(F)c(F)c3)C2)nc2c1NC(=O)[C@H](C)N2C` [Compound 258, (7S)-4,7,8-trimethyl-2-((trans-3-((3,4,5-trifluorophenoxy)methyl)-cyclobutyl)amino)-7,8-dihydropteridin-6(5H)-one], for which the IC50 in the assay with Hek293 empty vector (Homo sapiens, HEK293) was no less than 3000 nM.
On to `Cc1cc(F)ncc1Cn1cc(CNc2nc(C)c3c(n2)N(C)[C@@H](C)C(=O)N3)cn1` [Compound 94, (7S)-2-(((1-((6-fluoro-4-methylpyridin-3-yl)methyl)-1H-pyrazol-4-yl)methyl)amino)-4,7,8-trimethyl-7,8-dihydropteridin-6(5H)-one], for which the IC50 with Hek293 empty vector (Homo sapiens, HEK293) was no less than 3000 nM.
As for `Cc1nc(NCc2cn(Cc3ccc(C(F)(F)F)nc3)cn2)nc2c1NC(=O)[C@H](C)N2C` [Compound 428, (S)-4,7,8-trimethyl-2-(((1-((6-(trifluoromethyl)pyridin-3-yl)methyl)-1H-imidazol-4-yl)methyl)amino)-7,8-dihydropteridin-6(5H)-one], the IC50 in the assay with Hek293 empty vector (Homo sapiens, HEK293) is no less than 3000 nM.
Still for that read-out and setting: then `Cc1nn(C)cc1Cn1cc(CNc2nc(C)c3c(n2)N(C)[C@@H](C)C(=O)N3)cn1` [Compound 139, (7S)-2-(((1-((1,3-dimethyl-1H-pyrazol-4-yl)methyl)-1H-pyrazol-4-yl)methyl)amino)-4,7,8-trimethyl-7,8-dihydropteridin-6(5H)-one], with no less than 3000 nM; and `CC[C@H]1C(=O)Nc2cnc(NCc3cnn(Cc4ccc(C(F)(F)F)nc4)c3)nc2N1C` [Compound 427, (7S)-7-ethyl-8-methyl-2-(((1-((6-(trifluoromethyl)pyridin-3-yl)methyl)-1H-pyrazol-4-yl)methyl)amino)-7,8-dihydropteridin-6(5H)-one], with no less than 3000 nM; and `Cc1nc(NCc2cnn(Cc3cncc(F)c3)c2)nc2c1NC(=O)[C@H](C(C)C)N2C` [Compound 415, (7S)-2-(((1-((5-fluoropyridin-3-yl)methyl)-1H-pyrazol-4-yl)methyl)amino)-7-isopropyl-4,8-dimethyl-7,8-dihydropteridin-6(5H)-one], with no less than 3000 nM.
Turning to `Cc1nc(NCc2cnn(CC3CCC3)c2)nc2c1N(C)C(=O)[C@H](C)N2C` [Compound 7, (7S)-2-(((1-(cyclobutylmethyl)-1H-pyrazol-4-yl)methyl)amino)-4,5,7,8-tetramethyl-7,8-dihydropteridin-6(5H)-one], in the assay with Hek293 empty vector (Homo sapiens, HEK293), the IC50 is no less than 3000 nM.
Still for that read-out and setting: the result for `CC[C@H]1C(=O)Nc2cnc(NCc3cnn(Cc4ccc(F)cc4)c3)nc2N1C` [Compound 9, (7S)-7-ethyl-2-(((1-(4-fluorobenzyl)-1H-pyrazol-4-yl)methyl)amino)-8-methyl-7,8-dihydropteridin-6(5H)-one] reads no less than 3000 nM.
In the case of `Cc1nc(NCc2cnn(C3CCN(C(=O)c4ccc(F)cc4)CC3)c2)nc2c1NC(=O)[C@H](C)N2C` [Compound 125, (7S)-2-(((1-(1-(4-Fluorobenzoyl)piperidin-4-yl)-1H-pyrazol-4-yl)methyl)amino)-4,7,8-trimethyl-7,8-dihydropteridin-6(5H)-one], the IC50 in the assay on Hek293 empty vector (Homo sapiens, HEK293) is no less than 3000 nM.
`Cc1nc(NCc2cnn(CCc3ccc(F)cc3)c2)nc2c1NC(=O)[C@H](C)N2C` [Compound 6, (7S)-2-(((1-(4-fluorophenethyl)-1H-pyrazol-4-yl)methyl)amino)-4,7,8-trimethyl-7,8-dihydropteridin-6(5H)-one]: the IC50 in the assay on Hek293 empty vector (Homo sapiens, HEK293) was no less than 3000 nM.
With “(7S)-2-(((1-((6-fluoro-2-isopropylpyridin-3-yl)methyl)-1H-pyrazol-4-yl)methyl)(methyl)amino)-7-isopropyl-4,8-dimethyl-7,8-dihydropteridin-6(5H)-one [Compound 430]”, the IC50 in the assay with Hek293 empty vector (Hek293 empty vector) was no less than 3000 nM.
As for `CC(=O)N(Cc1cnn(Cc2ccc(C(F)(F)F)nc2)c1)c1nc(C)c2c(n1)N(C)[C@@H](C)C(=O)N2` [Compound 405, (7S)-N-((1-((6-(trifluoromethyl)pyridin-3-yl)methyl)-1H-pyrazol-4-yl)methyl)-N-(4,7,8-trimethyl-6-oxo-5,6,7,8-tetrahydropteridin-2-yl)acetamide], in the assay with Hek293 empty vector (Homo sapiens, HEK293), the IC50 was no less than 3000 nM.
As for `Cc1nc(NCc2cnn(Cc3cnc(Cl)c(F)c3)c2)nc2c1NC(=O)[C@H](C(C)C)N2C` [Compound 424, (7S)-2-(((1-((6-chloro-5-fluoropyridin-3-yl)methyl)-1H-pyrazol-4-yl)methyl)amino)-7-isopropyl-4,8-dimethyl-7,8-dihydropteridin-6(5H)-one], the IC50 in the assay on Hek293 empty vector (Homo sapiens, HEK293) was no less than 3000 nM.
`Cc1nc(NCc2cnn(Cc3ccc(C(F)(F)F)nc3C(C)O)c2)nc2c1NC(=O)[C@H](C)N2C` (stereo partly drawn) [Compound 419, (7S)-2-(((1-((2-((S)-1-hydroxyethyl)-6-(trifluoromethyl)pyridin-3-yl)methyl)-1H-pyrazol-4-yl)methyl)amino)-4,7,8-trimethyl-7,8-dihydropteridin-6(5H)-one]: the IC50 in the assay with Hek293 empty vector (Homo sapiens, HEK293) is no less than 3000 nM.
As to `Cc1nc(NCc2cnn(Cc3ccc(C(F)(F)F)nc3Cl)c2)nc2c1NC(=O)[C@H](C)N2C` [Compound 418, (7S)-2-(((1-((2-chloro-6-(trifluoromethyl)pyridin-3-yl)methyl)-1H-pyrazol-4-yl)methyl)amino)-4,7,8-trimethyl-7,8-dihydropteridin-6(5H)-one], the IC50 with Hek293 empty vector (Homo sapiens, HEK293) was no less than 3000 nM.
